Assay results taken from ChEMBL document CHEMBL1126478, “The syntheses and binding affinities of tools for the study of angiotensin AT2 receptors” (Bioorg Med Chem Lett, 1993).
Active and inactive are the calls of the source.

How the values were obtained:
[1] = biological target: T1, Type-1 angiotensin II receptor (Homo sapiens) (UniProt P30556); assay: The compound was evaluated for the inhibition of binding of [3H]-DUP 753 to AT1 receptor at 1 uM; not active (</= 10% Inhibition)
T1 sequence (whole entry): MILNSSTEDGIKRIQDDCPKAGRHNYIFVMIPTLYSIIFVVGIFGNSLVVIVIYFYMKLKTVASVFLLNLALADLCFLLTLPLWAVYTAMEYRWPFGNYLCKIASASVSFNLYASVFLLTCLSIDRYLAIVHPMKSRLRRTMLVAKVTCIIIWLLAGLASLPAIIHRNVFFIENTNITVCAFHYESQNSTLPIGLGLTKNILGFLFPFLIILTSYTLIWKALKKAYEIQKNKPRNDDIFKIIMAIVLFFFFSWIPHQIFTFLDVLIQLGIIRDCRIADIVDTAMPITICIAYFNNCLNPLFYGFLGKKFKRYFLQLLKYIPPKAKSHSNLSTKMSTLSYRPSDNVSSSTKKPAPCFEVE

[2] = biological target: T2, Type-2 angiotensin II receptor (Homo sapiens, UniProt P50052); assay: The compound was evaluated for the inhibition of binding of [125I]-CGP 42112A to AT2 receptor
T2 sequence (P50052 whole entry): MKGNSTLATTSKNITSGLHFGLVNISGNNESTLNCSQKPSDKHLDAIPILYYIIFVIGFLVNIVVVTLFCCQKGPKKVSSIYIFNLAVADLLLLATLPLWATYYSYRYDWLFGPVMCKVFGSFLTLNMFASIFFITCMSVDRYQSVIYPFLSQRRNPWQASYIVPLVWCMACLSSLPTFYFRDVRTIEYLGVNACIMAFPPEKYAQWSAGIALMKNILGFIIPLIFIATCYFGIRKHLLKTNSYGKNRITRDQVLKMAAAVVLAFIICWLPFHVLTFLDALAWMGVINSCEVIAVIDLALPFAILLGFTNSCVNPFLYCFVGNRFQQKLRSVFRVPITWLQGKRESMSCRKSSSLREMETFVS

[3] = biological target: T1, Type-1 angiotensin II receptor (Homo sapiens); assay: The compound was evaluated for the inhibition of binding of [3H]-DUP 753 to AT1 receptor at 0.1 uM; not active (</= 10% Inhibition)

Row | Compound | inhibition [1] | IC50 [2] [nM] | inhibition [3]
1 | Cc1cc(Cn2cnc3c2C[C@@H](C(=O)O)N(C(=O)C(c2ccccc2)c2ccccc2)C3)ccc1NCCCCCCNC(=O)CCNc1ccc([N+](=O)[O-])c2nonc12 | inactive | 3.6 | –
2 | Cc1cc(Cn2cnc3c2C[C@@H](C(=O)O)N(C(=O)C(c2ccccc2)c2ccccc2)C3)ccc1NCCCCCCNC(=O)[C@@H](N)CCCCNC(=O)CCCC[C@@H]1SC[C@@H]2NC(=O)N[C@@H]21 | – | 7 | inactive
3 | Cc1cc(Cn2cnc3c2C[C@@H](C(=O)O)N(C(=O)C(c2ccccc2)c2ccccc2)C3)cc(I)c1O | – | 5.1 | inactive
4 | Cc1cc(Cn2cnc3c2C[C@@H](C(=O)O)N(C(=O)C(c2ccccc2)c2ccccc2)C3)ccc1N(C)C | – | – | inactive
